# Assay results taken from PubChem BioAssay (NCI).
#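 Dose response: 5 concentrations. Exposure: 48 h. Format: 96-well plates. Endpoint: linear interpolation; highest concentration if not reached. GI50 = concentration required for 50% inhibition of growth. Definition used: TGI = concentration required for complete inhibition of growth.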
# Tests used:
# Experiment in all cases: growth of human tumour cells (NCI), 48 h
# LOX IMVI melanoma = test system: LOX IMVI melanoma
# U251 CNS = test system: U251 CNS
# EKVX NSCLC = test system: EKVX NSCLC
# A549 NSCLC = test system: A549 NSCLC
# SK-MEL-28 melanoma = test system: SK-MEL-28 melanoma
# MDA-MB-231 breast = test system: MDA-MB-231 breast
# SNB-75 CNS = test system: SNB-75 CNS
# RXF 393 renal = test system: RXF 393 renal
# NCI-H226 lung = test system: NCI-H226 lung
# MOLT-4 leukemia = test system: MOLT-4 leukemia
Compound,GI50 (LOX IMVI melanoma) [µM],TGI (LOX IMVI melanoma) [µM],GI50 (U251 CNS) [µM],TGI (U251 CNS) [µM],GI50 (EKVX NSCLC) [µM],TGI (EKVX NSCLC) [µM],GI50 (A549 NSCLC) [µM],TGI (A549 NSCLC) [µM],GI50 (SK-MEL-28 melanoma) [µM],TGI (SK-MEL-28 melanoma) [µM],GI50 (MDA-MB-231 breast) [µM],TGI (MDA-MB-231 breast) [µM],GI50 (SNB-75 CNS) [µM],TGI (SNB-75 CNS) [µM],GI50 (RXF 393 renal) [µM],TGI (RXF 393 renal) [µM],GI50 (NCI-H226 lung) [µM],TGI (NCI-H226 lung) [µM],GI50 (MOLT-4 leukemia) [µM],TGI (MOLT-4 leukemia) [µM]
COc1cc(CNc2oc(-c3ccccc3)c(-c3ccccc3)c2C#N)cc(CN2CCN(C)CC2)c1O,1.67,3.18,1.76,3.58,1.81,3.59,1.97,4.16,1.78,3.24,2.01,3.93,1.33,2.94,1.41,2.95,2.48,6.75,1.96,4.24
COc1ccc(-c2cc(=O)c3c(O)c(OC)c(OC)c(OC)c3o2)cc1,–,> 100,–,> 100,–,> 100,–,> 100,–,> 100,–,> 72,–,> 56.3,–,62.2,–,> 100,–,> 100
CC[C@H](C)[C@H](NC(=O)c1cccn1C)C(=O)N(C)[C@H](C[C@@H](OC(C)=O)c1nc(C(=O)N[C@@H](Cc2ccccc2)C[C@H](C)C(=O)OC)cs1)C(C)C,0.382,> 33.3,0.24,> 33.3,0.543,> 33.3,0.661,> 33.3,1.5,> 33.3,0.364,5.75,0.0929,> 33.3,–,–,1.17,> 33.3,0.429,> 33.3
Cc1cc(O)c(-c2ccc([C@@H](C)CN(C)C)cc2)c2c1[nH]c(=O)c1sccc12,0.785,27.5,0.399,17.4,0.585,6.23,0.647,14.6,1.33,5.56,0.608,28.6,0.206,3.02,0.167,0.53,1.75,18.4,1.69,17.7
N#Cc1cccc(C2C3=C(COC3=O)N(CCO)c3cc4c(cc32)OCO4)c1 (stereo not drawn),2.42,> 50,2.3,> 50,2.78,> 50,6.17,> 50,25.5,> 50,2.42,> 50,0.745,2.76,1.26,4.54,> 50,> 50,3.64,> 50
CC(C)(C)OC(=O)Nc1ccc2c(c1)C(NC(=O)Nc1cccc(C#N)c1)CC(C)(C)O2 (stereo not drawn),1.53,> 60.5,1.76,> 58.2,0.691,> 69.6,2.9,> 100,5.34,71.4,4.17,> 50.7,7.01,> 100,5.89,70.2,2.29,42.8,1.96,> 64.6
